According to publication PMC10215400 (Antibiotics, 2023):

Experiments:
[1] = molecular target: T1, KPC-2 β-lactamase D179Y variant (Klebsiella pneumoniae, UniProt Q93LQ9, D178Y); assay type: binding
[2] = molecular target: T2, KPC-2 β-lactamase D179N variant (Klebsiella pneumoniae, UniProt Q93LQ9, D178N); test: time-based mass spectrometry ([…]); assay type: binding
[3] = molecular target: T2, KPC-2 β-lactamase D179N variant; test: stopped-flow hydrolysis progress curves with purified enzyme; timed mass spectrometry; assay type: biochemical
[4] = molecular target: KPC-2 β-lactamase (Klebsiella pneumoniae, UniProt Q93LQ9); test: stopped-flow hydrolysis progress curves with purified enzyme; assay type: biochemical
[5] = molecular target: T1, KPC-2 β-lactamase D179Y variant; test: time-based mass spectrometry of acyl-complex ([…]); no turnover in stopped-flow; assay type: binding

T1 sequence (Q93LQ9 25-293 D178Y): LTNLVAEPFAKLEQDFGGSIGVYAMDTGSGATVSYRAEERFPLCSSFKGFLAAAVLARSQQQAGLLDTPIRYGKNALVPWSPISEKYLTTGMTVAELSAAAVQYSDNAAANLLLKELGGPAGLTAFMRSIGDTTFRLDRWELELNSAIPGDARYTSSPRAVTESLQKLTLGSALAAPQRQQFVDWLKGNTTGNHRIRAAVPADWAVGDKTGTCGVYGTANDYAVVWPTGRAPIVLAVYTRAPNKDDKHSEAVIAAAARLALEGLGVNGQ
T2 sequence (Q93LQ9 25-293 D178N): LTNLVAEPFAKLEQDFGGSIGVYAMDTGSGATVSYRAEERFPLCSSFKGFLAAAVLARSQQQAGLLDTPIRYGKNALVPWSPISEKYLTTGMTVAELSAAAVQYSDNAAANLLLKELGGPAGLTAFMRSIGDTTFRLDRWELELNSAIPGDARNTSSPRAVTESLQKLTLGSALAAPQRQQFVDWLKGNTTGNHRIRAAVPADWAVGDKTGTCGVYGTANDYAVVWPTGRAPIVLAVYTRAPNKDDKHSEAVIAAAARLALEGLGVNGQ
Sequence of KPC-2 β-lactamase (Q93LQ9 25-293 limits assumed): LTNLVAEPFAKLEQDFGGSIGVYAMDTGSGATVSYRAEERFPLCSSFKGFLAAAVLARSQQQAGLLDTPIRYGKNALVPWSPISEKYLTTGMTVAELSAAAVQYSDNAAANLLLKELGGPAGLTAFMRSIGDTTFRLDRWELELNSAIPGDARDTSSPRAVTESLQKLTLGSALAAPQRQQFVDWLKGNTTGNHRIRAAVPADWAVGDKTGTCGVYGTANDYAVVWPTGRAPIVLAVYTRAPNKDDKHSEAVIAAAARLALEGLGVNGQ

SMILES	time-based mass spectrometry of acyl-complex (1:1) [1]	time-based mass spectrometry (1:1) [2]	stopped-flow hydrolysis progress curves with purified enzyme; timed mass spectro [3]	stopped-flow hydrolysis progress curves with purified enzyme [4]	time-based mass spectrometry of acyl-complex (1:1); no turnover in stopped-flow [5]
O=C(NC1CCNCC1)[C@@H]1CC[C@@H]2CN1C(=O)N2OS(=O)(=O)O [relebactam]	relebactam is slower to form an acyl complex with the D179Y variant compared to avibactam	–	–	–	–
NC(=O)[C@@H]1CC[C@@H]2CN1C(=O)N2OS(=O)(=O)O [avibactam]	relebactam is slower to form an acyl complex with the D179Y variant compared to avibactam	Relebactam and avibactam behaved similarly vs. the D179N variant.	–	–	–
C[C@@H](O)[C@H]1C(=O)N2C(C(=O)O)=C(SCCN=CN)C[C@H]12 [imipenem]	–	–	KPC-2 (blue line) and the D179N variant (yellow line) both hydrolyzed imipenem	KPC-2 (blue line) and the D179N variant (yellow line) both hydrolyzed imipenem	acyl-complexes with imipenem and ceftazidime with the D179N variant was captured less often compared to the D179Y variant
